Measurements: patent US9186421B2, “Establishment of rhesus monkey model of autoimmunity type 1 diabetes” (West China Hospital, Sichuan University, priority 2010, dated 2015)

Experiments:
rhesus monkeys = experiment: Diabetes model prepared by low dose STZ induction; assay type: in vivo, rhesus monkey
Experimental: Low dose of STZ was administered intravenously for 5 consecutive days, at a dose of 15-30 mg/kg per time; and administrated again on the 7th day and 14th day after last administration. Fasting glucose was observed once each week.
6 rhesus monkeys were used to prepare models according to the method of the present invention and 4 models were successfully prepared. […]

[1] = system: rhesus monkey model of autoimmune type 1 diabetes; experiment: Insulin treatment of the rhesus monkey model of autoimmune type 1 diabetes; assay type: in vivo
Experimental: At present, insulin injection is the main treatment method of autoimmune type 1 diabetes. Insulin was applied to the rhesus monkey model of autoimmune type 1 diabetes in this experiment. The specific way was as follows:
1. According to the habit of eating twice per day of rhesus monkeys, different types of insulin were injected twice a day (9:30 am & 17:30 pm) in different doses, applied to the autoimmune type 1 diabetes model prepared by Example 1 of the present invention: combined treatment of (1) long-acting insulin: porcine insulin (protamine zinc insulin) produced by Wanbang Company (Xuzhou, China) and (2) short-acting insulin: ordinary porcine insulin produced by Wanbang Company (Xuzhou, China).
2. Initially, low dose of insulin (0.4 U/kg) was injected subcutaneously so as to avoid the occurrence of low blood glucose.
3. The fasting and postprandial glucose levels were monitored. The administration dosage was adjusted according to the blood glucose level, finally allowing the fasting and postprandial blood glucose to be less than 10 mmol/L and glycosylated hemoglobin to be less than 6.5%.

[2] = established model after low dose STZ i.v.
[3] = insulin s.c. twice a day, start 0.4 U/kg, dosage adjusted to blood glucose

CN(N=O)C(=O)N[C@@H](C=O)[C@@H](O)[C@H](O)[C@H](O)CO [STZ, Streptozotocin]
fasting blood glucose, fluctuation (rhesus monkeys; after intravenous injection of STZ, 20 or 25 mg/kg per time, days 1-5, 12, 19): 3.2 to 17.6 mmol/L
fasting blood glucose, consistently (rhesus monkeys; [2]): higher than 11.1 mmol/L
serum C-peptide (rhesus monkeys; [2]): less than 0.3 nM
glucagon expression-positive cells in the islet tissue (rhesus monkeys; immunohistochemistry, FIG. 3B): above 90%
models successfully prepared (rhesus monkeys; of 6 rhesus monkeys): 4

Insulin: combined treatment of long-acting porcine insulin (protamine zinc insulin) and short-acting ordinary porcine insulin, Wanbang Company
fasting and postprandial blood glucose [1, 3]: less than 10 mmol/L
glycosylated hemoglobin [1, 3]: less than 6.5%
therapeutic effect on autoimmune type 1 diabetes ([1]; long-acting plus short-acting porcine insulin): better therapeutic effect
